Marks after values point to notes of the source that are not given here.
Experiments:
[1] = molecular target: full-length recombinant NC (1–55) (Human immunodeficiency virus type 1 group M subtype B, UniProt P12493); experiment: Non-denaturing ESI-MS binding and binding competition with NC; set-up: species or system HIV-1 LAI strain; details: for complex formation with NC (ESI-MS): 5 μM NC, ten-fold compound concentration
MT-2 cells = type: cell-based; details: human, 72 h
NC(11–55) peptide = NC(11–55) peptide (Human immunodeficiency virus type 1 group M subtype B, UniProt P04591, I389N); experiment: Nucleic acid destabilization assay; type: biochemical, HIV-1 MAL strain; details: 200 μM of compound

Row | SMILES | complex formation with NC (ESI-MS) [1] | TD50 (MT-2 cells) | affinity of 5–06 for NC relative to compound 5 ([1]; from fractional occupancies) | inhibition of the NC-induced cTAR55 destabilization (NC(11–55) peptide)
1 | Cc1ccc(NS(=O)(=O)c2ccc3oc(=O)[nH]c3c2)c(C)c1 [compound 5, N-(2,4-dimethylphenyl)-2-oxo-2,3-dihydro-1,3-benzoxazole-5-sulfonamide] | stable 1:1 complexes |  |  | 
2 | O=c1[nH]c2cc(S(=O)(=O)Nc3ccc4[nH]ncc4c3)ccc2o1 [5–06, N-(1H-indazol-5-yl)-2-oxo-2,3-dihydro-1,3-benzoxazole-5-sulfonamide] | stable 1:1 complexes | 140^# (75.0–378.0) μM | two to three-fold higher affinity | by half
